Several values for one entry are separate records, joined by “and”; a condition that tells them apart may be missing. Equal entries are not always repeated. Where two headings read alike, the source gives them in different places. Where a SMILES comes first, the peptide text is derived from it. Bridges are numbered along the chain shown (N, C = ends).
What was measured:
FcεRI = target: T1, FcεRI (Homo sapiens, UniProt P12319); assay: competitive phage ELISA on baculovirus-derived FcεRI; type: binding; settings: for relative binding affinity (in words): compared with the parent
T1 construct: human FcεRI(aa 1-176) was expressed using a baculovirus secretion expression system; host or cells: Hi-5 insect cells infected with baculovirus (virus produced in Sf9; transfer vector pAcGP67)
T1 sequence (P12319 26-201): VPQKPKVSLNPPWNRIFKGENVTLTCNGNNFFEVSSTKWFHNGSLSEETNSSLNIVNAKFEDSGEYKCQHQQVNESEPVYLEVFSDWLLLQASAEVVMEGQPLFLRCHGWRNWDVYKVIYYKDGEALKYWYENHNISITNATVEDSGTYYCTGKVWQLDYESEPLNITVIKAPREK
From the text: The extracellular domain of the alpha subunit of the human FcεRI(aa 1-176) was expressed using a baculovirus secretion expression system (Pharminten). cDNA encoding this domain was obtained through PCR of a plasmid containing a full length clone. The DNA fragment was ligated into baculovirus tranfer vector pAcGP67 and along with BaculoGold linearized baculovirus DNA was transfected into Sf9 cells Spodoptera frugiperda insect cells for baculovirus production (Pharmingen). Soluble FcεRI was affinity purified from the growth media of baculovirus infected Hi-5 insect cells (Expression Systems).
Phage ELISA assays were carried out as described (Lowman, 1998, supra), using Nunc Maxisorp™ plates coated with a 2 μg/mL solution of baculovirus-derived FcεRI. Peptide-phage were pre-incubated for 5-10 min with serial dilutions of receptor, then added to the receptor-coated plate. After incubation for 1 h at room temperature, the plates were washed and an anti-phage HRP-conjugated antibody (Pharmacia) was added. After further incubation for 20 min, plates were again washed and developed using the substrate OPD (Sigma). Optical density at 492 nm was read and plotted as a function of FcεRI concentration to determine an IC50 of inhibition by each peptide-phage variant.
A phage-based alanine scanning approach was used to map the FcεRI binding determinants of IGE134 (SEQ ID NOS:155, 171), as described above for IGE120 (SEQ ID NO:131, 159). […] Additionally, combinations of Ala mutations, deletions, and other substitutions were tested.

FcεRI-IgG = target: T2, FcεRI-IgG (Homo sapiens, UniProt P12319); assay: g3 phage competitive binding ELISA (competition with soluble FcεRI-IgG); settings: for Relative (IC50) (fold weaker): relative to g3c.42, NDB = no detectable binding
T2 construct: consisting of the extracellular domain of FcεR Ifused to the Fc domain of IgG; host or cells: CHO cells
T2 sequence (P12319 26-205 limits assumed): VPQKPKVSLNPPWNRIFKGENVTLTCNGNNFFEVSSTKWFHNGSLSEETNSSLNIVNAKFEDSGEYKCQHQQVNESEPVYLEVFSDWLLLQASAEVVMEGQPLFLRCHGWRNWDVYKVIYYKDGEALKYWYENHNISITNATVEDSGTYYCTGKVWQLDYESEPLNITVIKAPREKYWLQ
Method: A phage based competitive binding ELISA for immobilized FcεRI-IgG in the presence of titrated amounts of soluble FcεRI-IgG was performed on each of the clones.
Peptide sequences from g8p-fused phage clones that specifically bound FcεRI-IgG were transferred onto a g3p-display format for monovalent phage display (Bass et al., Proteins 8, 309-314 (1990); Lowman et al., Biochemistry 30, 10832-10838 (1991)). An oligonucleotide encoding for each desired peptide with additional 5′ and 3′ base pair that overlapped with g3 was synthesized. This oligonucleotide was annealed with a g3 single stranded DNA phagemid template. The mutagenesis reaction was transformed into XL-1 Blue E. coli and plated on LB-carb+ agar plates. Individual colonies were propagated in 5 mL of 2YT broth, tetracycline, carbenicillin and VCSM13 helper phage (Stratagene). Single stranded DNA was isolated from the purified phage particles and sequenced to confirm the insertion of the phage peptide sequence. 25 mL preparations of g3 phage clones were propagated overnight and purified by PEG precipitation. After resuspension of the phage pellet in 1.0 mL of PBS, it was serially diluted ⅓ and incubated with immobilized FcεRI-IgG 2 ug/mL in a 96 well Maxisorp microtiter plate for 1 hour at room temperature. The wells were washed 10× with PBST then incubated with 100 uL of anti M13 phage HRP as described above. An OD(492) value corresponding to less than 50% binding was selected and the purified phage clones were diluted to yield this normalized level of signal. […] The mixture was then transferred to 96 well microtiter dishes containing immobilized FcεRI-IgG. After a 1-hour incubation period, the plates were washed 10 times, incubated with anti M13-HRP conjugated antibody and developed with OPD as described above. The data was plotted, and 4-parameter fits (KaleidaGraph 3.0) used for calculation of IC50 values.
Alanine substitutions were made at various positions throughout the peptide sequence for monovalent (g3p) phage display using site directed mutagenesis as described (Kunkel et al., Methods Enzymol. 204, 125-139 (1991)). In addition, stepwise N-terminal and C-terminal truncations of the peptide sequence were constructed. All constructs were made by designing oligonucleotides corresponding to the desired substitution or truncation, with an additional 18 bp of DNA overlapping the peptide or g3 phage DNA sequence. The phage clones were propagated overnight following infection in XL-1 Blue E. coli. Purified phage preparations were titered and assayed for binding to immobilized receptor. FcεRI-IgG competition assays were performed as described above.

[1] = 2D NMR structural score versus reference peptide; type: physicochemical; design: key to Struct. Score: +++ indicates the peptide is structured similarly to IGE063 (SEQ ID NO:49); + indicates the peptide is structured similarly to IGE063 (SEQ ID NO:49), but is less stable; −/+ indicates the peptide has some elements of stable structure, but the conformation differs from the reference structure (e.g., a different turn type is evident); − indicates the peptide is predominantly unstructured in aqueous solution; settings: reference IGE063
Method: Peptides were evaluated by 2D NMR spectroscopy to assess the effect of substitutions on the three-dimensional structure of the peptide analog. All peptides with a structural score indicated in Table 5 were analyzed by 2D NMR spectroscopy; backbone ^1H resonances were assigned and ^3JHN-Hα coupling constants were measured and compared to the reference peptide (IGE063, SEQ ID NO:49; see Example 5). Peptides are defined to be of similar structure to the reference peptide provided chemical shifts, coupling constants, and NOEs are consistent with that structure.
A structural score was assigned to peptides analyzed by 2D NMR spectroscopy. For each of these peptides, backbone ^1H resonances have been assigned, and the ^3JHN-Ha coupling constants have been measured and compared to the reference peptide (i.e., IGE134 (SEQ ID NOS:155, 171)). Peptides are defined to be of similar structure to the reference peptide provided. chemical shifts, coupling constants, and NOEs are consistent with that structure.

[2] = target: T3, alpha subunit of the human FcεRI receptor (Homo sapiens, UniProt P12319); assay: cell-based 125I-IgE binding inhibition assay on CHO FcεRI+ cells; settings: truncations and alanine substitutions of IGE063
T3 construct: expressed in transfected cells; host or cells: Chinese hamster ovary (CHO FcεRI+) cells
T3 sequence (P12319 26-257): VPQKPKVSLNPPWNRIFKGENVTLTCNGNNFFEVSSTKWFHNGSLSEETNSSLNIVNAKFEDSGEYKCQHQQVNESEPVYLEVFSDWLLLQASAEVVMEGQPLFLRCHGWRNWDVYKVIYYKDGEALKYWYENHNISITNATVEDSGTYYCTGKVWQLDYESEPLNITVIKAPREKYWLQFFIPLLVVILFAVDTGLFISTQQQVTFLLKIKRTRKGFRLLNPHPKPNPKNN
How it was run: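 Peptides, serially diluted 1:3 from 50-500 uM, preincubated 1 h at room temperature on CHO cells expressing human FcεRI alpha, then 1.5 nM 125I-IgE added for 45-60 min at 4 °C. Buffer F12/DMEM, 1% BSA, 0.05% NaN3, pH 7.2. Bound counts by gamma counting; IC50 from 4-parameter fits.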

[3] = g3 phage clones, immobilized FcεRI-IgG, titrated soluble FcεRI-IgG, read-out: Phage IC50
[4] = truncated peptides on g3 phage, read-out: IC50

Row | Compound | Relative (IC50) (fold weaker) (FcεRI-IgG; truncated peptides on g3 phage) | IC50 (FcεRI-IgG; [3]) | other results
1 | IVCPRLCYVGGKALCPDVCYV [SEQ ID NO:131] |  |  | relative binding affinity (in words) (FcεRI): improved binding affinity
2 | DLPACTEGPWGWVCMAAD [g3b.7] |  | 9 nM | 
3 | NLPTCTEGPWGWVCMAAD [g3b.3] |  | 7 nM | 
4 | CTEGPWGWVCMAAD [g3c.21] | NDB |  | 
5 | GRAQCTEGPWGWVCMAAD [g3b.6] |  | 16 nM | 
6 | NLPRCTEGPWGWVCMA [g3c.31] | 1X |  | IC50 (FcεRI-IgG; [4]): 6.1 nM
7 | CSCC[C@H](NC(=O)[C@@H]1CSSC[C@H](NC(=O)[C@H](CCCNC(=N)N)NC(=O)[C@@H]2CCCN2C(=O)[C@H](CC(C)C)NC(=O)[C@@H](N)CC(N)=O)C(=O)N[C@@H]([C@@H](C)O)C(=O)N[C@@H](CCC(=O)O)C(=O)NCC(=O)N2CCC[C@H]2C(=O)N[C@@H](Cc2c[nH]c3ccccc23)C(=O)NCC(=O)N[C@@H](C)C(=O)N[C@@H](C(C)C)C(=O)N1)C(=O)O [IGE073, NLPRCTEGPWGAVCM] (H-NLPRCTEGPWGAVCM-OH; disulfide 5-14; N-terminus and C-terminus assumed) |  |  | Struct. Score [1]: +; fold reduction in inhibition/binding [2]: 65 fold
8 | CSCC[C@H](NC(=O)[C@@H]1CSSC[C@H](NC(=O)[C@H](CCCNC(=N)N)NC(=O)[C@@H]2CCCN2C(=O)[C@H](CC(C)C)NC(=O)[C@@H](N)CC(N)=O)C(=O)N[C@@H]([C@@H](C)O)C(=O)N[C@@H](CCC(=O)O)C(=O)N[C@@H](C)C(=O)N2CCC[C@H]2C(=O)N[C@@H](Cc2c[nH]c3ccccc23)C(=O)NCC(=O)N[C@@H](Cc2c[nH]c3ccccc23)C(=O)N[C@@H](C(C)C)C(=O)N1)C(=O)O [IGE079, NLPRCTEAPWGWVCM] (H-NLPRCTEAPWGWVCM-OH; disulfide 5-14; N-terminus and C-terminus assumed) |  |  | Struct. Score [1]: +++; fold reduction in inhibition/binding [2]: 256 fold
9 | VQCPHFCYVGGKALCPDVCYV |  |  | relative binding affinity (in words) (FcεRI): improved binding affinity
10 | IVCPRLCYVGGKALCPDVCAV [SEQ ID NO:143] |  |  | fold reduction in binding affinity compared to IGE120 (FcεRI; IGE120-phage alanine scan): No detectable binding
11 | IVCPRLCYELDYELCPDVCYV |  |  | fold improved affinity over IGE120 (FcεRI; clone from IGE120-phage library): about 2 fold

Now from value to compound, other results behind:

Row | Relative (IC50) (fold weaker) (FcεRI-IgG; truncated peptides on g3 phage) | IC50 (FcεRI-IgG; [3]) | Compound | other results
12 | NDB |  | RCTEGPWGWVCMAAD [g3c.17] | 
13 |  | 14 nM | GRTECTEGPWGWVCMAAD [g3b.8] | 
14 |  | 7 nM | VMPTCTEGPWGWVCMAAD [g3b.4] | 
15 | 3X |  | NLPRCTEGPWGWVCM [g3c.34] | IC50 (FcεRI-IgG; [4]): 14.6 nM
16 |  | 10 nM | AMAQCTEGPWGWVCMAAD [g3b.5] | 
17 | 1X |  | LPRCTEGPWGWVCMAAD [g3c.1] | IC50 (FcεRI-IgG; [4]): 3 nM
18 | 1X |  | NLPRCTEGPWGWVCMAA [g3c.29] | IC50 (FcεRI-IgG; [4]): 5 nM
19 |  | 13 nM | NLPRCTEGPWGWVCMAAD [g3b.1] | 
20 | 1X |  | NLPRCTEGPWGWVCMAAD [g3c.42] | IC50 (FcεRI-IgG; [4]): 3.1 nM and 5.6 nM

— US20040086942A1, “Ige receptor antagonists” (priority 2003, published 2004)
